In ChEMBL document CHEMBL1147999, “Caffeoylglycolic and caffeoylamino acid derivatives, halfmers of L-chicoric acid, as new HIV-1 integrase inhibitors” (Eur J Med Chem, 2007):
Calls of active or inactive are those of the source. The rule behind the calls is not given here.

Experiments:
[1] = target: Human immunodeficiency virus type 1 integrase (Human immunodeficiency virus 1, UniProt Q7ZJM1); experiment: Inhibition of recombinant HIV1 integrase expressed in Escherichia coli
[2] = system: Human immunodeficiency virus 1; experiment: Antiviral activity against HIV1 3B in MT4 cells at 200 uM; assay type: functional, organism-based
[3] = Human immunodeficiency virus 1, 3B

Human immunodeficiency virus type 1 integrase, sequence (Q7ZJM1 whole entry): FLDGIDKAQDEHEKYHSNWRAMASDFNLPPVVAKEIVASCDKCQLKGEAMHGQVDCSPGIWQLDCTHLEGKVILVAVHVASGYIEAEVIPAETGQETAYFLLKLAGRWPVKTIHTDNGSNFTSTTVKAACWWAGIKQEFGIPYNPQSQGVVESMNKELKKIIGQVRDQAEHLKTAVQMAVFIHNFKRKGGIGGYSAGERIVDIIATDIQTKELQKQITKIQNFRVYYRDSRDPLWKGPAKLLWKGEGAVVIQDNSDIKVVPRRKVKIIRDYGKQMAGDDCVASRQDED

Row | Compound | IC50 [1] [µM] | other results
1 | COc1cc(/C=C/C(=O)OCC(=O)O)ccc1O | > 300 | 
2 | CC(C)CC(NC(=O)/C=C/c1ccc(O)c(O)c1)C(=O)O (centres undefined) | 130 | 
3 | CC(OC(=O)/C=C/c1ccc(O)c(O)c1)C(=O)O (centres undefined) | 128 | Activity [2]: inactive
4 | O=C(/C=C/c1ccc(O)c(O)c1)NC(Cc1ccc(O)cc1)C(=O)O (centres undefined) | 129 | 
5 | COc1ccc(/C=C/C(=O)OCC(=O)O)cc1OC | > 300 | 
6 | O=C(/C=C/c1ccc(O)c(O)c1)O[C@H](C(=O)O)[C@@H](OC(=O)/C=C/c1ccc(O)c(O)c1)C(=O)O |  | CC50 [2, 3]: > 42.2 µM; EC50 [2, 3]: 7.5 µM
7 | O=C(/C=C/c1ccc(O)c(O)c1)NC(Cc1ccc(O)c(O)c1)C(=O)O (centres undefined) | 12 | Activity [2]: inactive
8 | O=C(O)CNC(=O)/C=C/c1ccc(O)c(O)c1 | 172 | 
9 | O=C(O)COC(=O)/C=C/c1ccc(O)c(O)c1 | 10.5 | 
10 | CC(NC(=O)/C=C/c1ccc(O)c(O)c1)C(=O)O (centres undefined) | 148 | 
11 | O=C(/C=C/c1ccc(O)c(O)c1)NC(Cc1ccccc1)C(=O)O (centres undefined) | 95 | 
